Legend:
Experiment in all cases: Test C pre/postemergence
Format in all cases: in vivo
[1] = test system: Surinam grass (Brachiaria decumbens); conditions: for Plant response rating (scale of 0 to 100), Surinam Grass / Surinam Grass plant response rating: Postemergence; for Surinam Grass plant response rating: scale 0 to 100 (0 no effect, 100 complete control); for Plant response rating, Surinam Grass: Preemergence
Procedure, shortened: (§1)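 Visual injury ratings, 0 (no effect) to 100 (complete control), made 12 to 14 days after treatment by comparison with untreated controls. Greenhouse plants received test chemical in a surfactant-containing non-phytotoxic solvent, either preemergence on planted seeds or postemergence at the 1- to 4-leaf stage.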

[2] = test system: bermudagrass (Cynodon dactylon); conditions: for Plant response rating (scale of 0 to 100), Bermudagrass / Bermudagrass plant response rating: Postemergence; for Bermudagrass plant response rating: scale 0 to 100 (0 no effect, 100 complete control); for Plant response rating, Bermudagrass: Preemergence
Procedure, shortened: as §1

[3] = test system: common ragweed (Ambrosia elatior); conditions: for Plant response rating (scale of 0 to 100), Ragweed / Ragweed plant response rating: Postemergence; for Ragweed plant response rating: scale 0 to 100 (0 no effect, 100 complete control); for Plant response rating, Ragweed: Preemergence
Procedure, shortened: as §1

[4] = test system: eastern black nightshade (Solanum ptycanthum); conditions: Preemergence
Procedure, shortened: as §1

[5] = test system: giant foxtail (Setaria faberii); conditions: for Plant response rating (scale of 0 to 100), Foxtail, Giant / Foxtail, Giant plant response rating: Postemergence; for Foxtail, Giant plant response rating: scale 0 to 100 (0 no effect, 100 complete control); for Plant response rating, Foxtail, Giant: Preemergence
Procedure, shortened: as §1

[6] = test system: goosegrass (Eleusine indica); conditions: for Plant response rating (scale of 0 to 100), Goosegrass / Goosegrass plant response rating: Postemergence; for Goosegrass plant response rating: scale 0 to 100 (0 no effect, 100 complete control); for Plant response rating, Goosegrass: Preemergence
Procedure, shortened: as §1

[7] = test system: lambsquarters (Chenopodium album); conditions: for Plant response rating (scale of 0 to 100), Lambsquarters / Lambsquarters plant response rating: Postemergence; for Lambsquarters plant response rating: scale 0 to 100 (0 no effect, 100 complete control); for Plant response rating, Lambsquarters: Preemergence
Procedure, shortened: as §1

[8] = test system: morningglory (Ipomoea coccinea); conditions: for Plant response rating (scale of 0 to 100), Morningglory / Morningglory plant response rating: Postemergence; for Morningglory plant response rating: scale 0 to 100 (0 no effect, 100 complete control); for Plant response rating, Morningglory: Preemergence
Procedure, shortened: as §1

[9] = test system: soybean (Glycine max); conditions: for Plant response rating (scale of 0 to 100), Soybean / Soybean plant response rating: Postemergence; for Soybean plant response rating: scale 0 to 100 (0 no effect, 100 complete control); for Plant response rating, Soybean: Preemergence
Procedure, shortened: as §1

[10] = test system: velvetleaf (Abutilon theophrasti); conditions: for Plant response rating (scale of 0 to 100), Velvetleaf / Velvetleaf plant response rating: Postemergence; for Velvetleaf plant response rating: scale 0 to 100 (0 no effect, 100 complete control); for Plant response rating, Velvetleaf: Preemergence
Procedure, shortened: as §1

[11] = test system: woolly cupgrass (Eriochloa villosa); conditions: for Plant response rating (scale of 0 to 100), Cupgrass, Woolly / Cupgrass, Woolly plant response rating: Postemergence; for Cupgrass, Woolly plant response rating: scale 0 to 100 (0 no effect, 100 complete control); for Plant response rating, Cupgrass, Woolly: Preemergence
Procedure, shortened: as §1

[12] = test system: yellow nutsedge (Cyperus esculentus); conditions: for Plant response rating (scale of 0 to 100), Nutsedge, Yellow / Nutsedge, Yellow plant response rating: Postemergence; for Nutsedge, Yellow plant response rating: scale 0 to 100 (0 no effect, 100 complete control); for Plant response rating, Nutsedge, Yellow: Preemergence
Procedure, shortened: as §1

[13] = 16 g ai/ha, scale 0 to 100, 0 no effect, 100 complete control
[14] = 31 g ai/ha, scale 0 to 100, 0 no effect, 100 complete control
[15] = 62 g ai/ha, scale 0 to 100, 0 no effect, 100 complete control

## CCOC(=O)C(OC(C)=O)c1nc(C2CC2)nc(N)c1Br (stereo not drawn) [Compound 47]
[1]; 16 g ai/ha
  Plant response rating (scale of 0 to 100), Surinam Grass: 0
[1]; 31 g ai/ha
  Plant response rating (scale of 0 to 100), Surinam Grass: 0
[1]; 62 g ai/ha
  Surinam Grass plant response rating: 0
[1]; 125 g ai/ha
  Surinam Grass plant response rating: 20
[1]; [13]
  Plant response rating, Surinam Grass: 0
[1]; [14]
  Plant response rating, Surinam Grass: 0
[1]; [15]
  Plant response rating, Surinam Grass: 0
[1]; 125 g ai/ha, scale 0 to 100
  Plant response rating, Surinam Grass: 0
[2]; 16 g ai/ha
  Plant response rating (scale of 0 to 100), Bermudagrass: 0
[2]; 31 g ai/ha
  Plant response rating (scale of 0 to 100), Bermudagrass: 0
[2]; 62 g ai/ha
  Bermudagrass plant response rating: 0
[2]; 125 g ai/ha
  Bermudagrass plant response rating: 15
[2]; [13]
  Plant response rating, Bermudagrass: 0
[2]; [14]
  Plant response rating, Bermudagrass: 0
[2]; [15]
  Plant response rating, Bermudagrass: 0
[2]; 125 g ai/ha, scale 0 to 100
  Plant response rating, Bermudagrass: 95
[3]; 16 g ai/ha
  Plant response rating (scale of 0 to 100), Ragweed: 0
[3]; 31 g ai/ha
  Plant response rating (scale of 0 to 100), Ragweed: 0
[3]; 62 g ai/ha
  Ragweed plant response rating: 40
[3]; 125 g ai/ha
  Ragweed plant response rating: 80
[3]; [13]
  Plant response rating, Ragweed: 0
[3]; [15]
  Plant response rating, Ragweed: 45
[3]; 125 g ai/ha, scale 0 to 100
  Plant response rating, Ragweed: 65
[4]; [13]
  Plant response rating, Nightshade: 80
[4]; [14]
  Plant response rating, Nightshade: 85
[4]; [15]
  Plant response rating, Nightshade: 95
[4]; 125 g ai/ha, scale 0 to 100
  Plant response rating, Nightshade: 100
[5]; 16 g ai/ha
  Plant response rating (scale of 0 to 100), Foxtail, Giant: 0
[5]; 31 g ai/ha
  Plant response rating (scale of 0 to 100), Foxtail, Giant: 0
[5]; 62 g ai/ha
  Foxtail, Giant plant response rating: 0
[5]; 125 g ai/ha
  Foxtail, Giant plant response rating: 0
[5]; [13]
  Plant response rating, Foxtail, Giant: 0
[5]; [14]
  Plant response rating, Foxtail, Giant: 0
[5]; [15]
  Plant response rating, Foxtail, Giant: 0
[5]; 125 g ai/ha, scale 0 to 100
  Plant response rating, Foxtail, Giant: 20
[6]; 16 g ai/ha
  Plant response rating (scale of 0 to 100), Goosegrass: 0
[6]; 31 g ai/ha
  Plant response rating (scale of 0 to 100), Goosegrass: 0
[6]; 62 g ai/ha
  Goosegrass plant response rating: 0
[6]; 125 g ai/ha
  Goosegrass plant response rating: 0
[6]; [13]
  Plant response rating, Goosegrass: 0
[6]; [14]
  Plant response rating, Goosegrass: 45
[6]; [15]
  Plant response rating, Goosegrass: 85
[6]; 125 g ai/ha, scale 0 to 100
  Plant response rating, Goosegrass: 90
[7]; 16 g ai/ha
  Plant response rating (scale of 0 to 100), Lambsquarters: 0
[7]; 31 g ai/ha
  Plant response rating (scale of 0 to 100), Lambsquarters: 45
[7]; 62 g ai/ha
  Lambsquarters plant response rating: 70
[7]; 125 g ai/ha
  Lambsquarters plant response rating: 80
[7]; [13]
  Plant response rating, Lambsquarters: 0
[7]; [15]
  Plant response rating, Lambsquarters: 85
[7]; 125 g ai/ha, scale 0 to 100
  Plant response rating, Lambsquarters: 95
[8]; 16 g ai/ha
  Plant response rating (scale of 0 to 100), Morningglory: 20
[8]; 31 g ai/ha
  Plant response rating (scale of 0 to 100), Morningglory: 35
[8]; 62 g ai/ha
  Morningglory plant response rating: 40
[8]; 125 g ai/ha
  Morningglory plant response rating: 65
[8]; [13]
  Plant response rating, Morningglory: 0
[8]; [14]
  Plant response rating, Morningglory: 0
[8]; [15]
  Plant response rating, Morningglory: 70
[8]; 125 g ai/ha, scale 0 to 100
  Plant response rating, Morningglory: 100
[9]; 16 g ai/ha
  Plant response rating (scale of 0 to 100), Soybean: 20
[9]; 31 g ai/ha
  Plant response rating (scale of 0 to 100), Soybean: 40
[9]; 62 g ai/ha
  Soybean plant response rating: 65
[9]; 125 g ai/ha
  Soybean plant response rating: 75
[9]; [13]
  Plant response rating, Soybean: 0
[9]; [14]
  Plant response rating, Soybean: 0
[9]; [15]
  Plant response rating, Soybean: 0
[9]; 125 g ai/ha, scale 0 to 100
  Plant response rating, Soybean: 0
[10]; 16 g ai/ha
  Plant response rating (scale of 0 to 100), Velvetleaf: 0
[10]; 31 g ai/ha
  Plant response rating (scale of 0 to 100), Velvetleaf: 0
[10]; 62 g ai/ha
  Velvetleaf plant response rating: 0
[10]; 125 g ai/ha
  Velvetleaf plant response rating: 0
[10]; [13]
  Plant response rating, Velvetleaf: 0
[10]; [14]
  Plant response rating, Velvetleaf: 20
[10]; [15]
  Plant response rating, Velvetleaf: 20
[10]; 125 g ai/ha, scale 0 to 100
  Plant response rating, Velvetleaf: 50
[11]; 16 g ai/ha
  Plant response rating (scale of 0 to 100), Cupgrass, Woolly: 0
[11]; 31 g ai/ha
  Plant response rating (scale of 0 to 100), Cupgrass, Woolly: 0
[11]; 62 g ai/ha
  Cupgrass, Woolly plant response rating: 0
[11]; 125 g ai/ha
  Cupgrass, Woolly plant response rating: 0
[11]; [13]
  Plant response rating, Cupgrass, Woolly: 0
[11]; [14]
  Plant response rating, Cupgrass, Woolly: 0
[11]; [15]
  Plant response rating, Cupgrass, Woolly: 0
[11]; 125 g ai/ha, scale 0 to 100
  Plant response rating, Cupgrass, Woolly: 0
[12]; 16 g ai/ha
  Plant response rating (scale of 0 to 100), Nutsedge, Yellow: 0
[12]; 31 g ai/ha
  Plant response rating (scale of 0 to 100), Nutsedge, Yellow: 0
[12]; 62 g ai/ha
  Nutsedge, Yellow plant response rating: 0
[12]; 125 g ai/ha
  Nutsedge, Yellow plant response rating: 0
[12]; [13]
  Plant response rating, Nutsedge, Yellow: 0
[12]; [14]
  Plant response rating, Nutsedge, Yellow: 0
[12]; [15]
  Plant response rating, Nutsedge, Yellow: 0
[12]; 125 g ai/ha, scale 0 to 100
  Plant response rating, Nutsedge, Yellow: 0

Source: US8802597B2, “Herbicidal pyrimidines” (E I du Pont de Nemours and Company, priority 2003, dated 2014)
